Results from patent US20110158944A1, “BRAF BIOMARKERS” (priority 2007, published 2011).
Read-outs that look alike come from different tables or passages of the source.

How the values were obtained:
Assay in all cases: Cell proliferation IC50 (Cell Titer Glo)
Type in all cases: cell-based
SK-Mel-31 = conditions: Homo sapiens, 96 h, read-out: IC50 cell proliferation
Protocol: (§1) IC50 Cell proliferation measurements. Cell proliferation was assessed in the 41 tumor cell lines set forth in Table 2 after 4 days of continuous exposure to either the ERK1/2 inhibitor, compound a or the MEK inhibitor compound b (PD0325901) using Promega Cell Titer Glo reagent (Promega Corp, Madison, Wis.). Promega's CellTiter-Glo™ Luminescent Cell Viability Assay is a sensitive method for assaying cell proliferation using a stable form of luciferase to measure ATP as an indicator of viable cells. This reagent allows a homogeneous method of determining cell number by quantitation of ATP. The luciferase luminescent signal produced is proportional to the number of viable cells present in culture.
(§2) A 1000× compound dose response curve, containing 8 dilutions of each compound, was prepared on a 96-well plate. Compounds were diluted in 100% DMSO to the following (1000×) concentrations: compound b: 1000 μM, 333 μM, 111 μM, 37 μM, 12 μM, 4.1 μM, 1.4 μM and 0.5 μM; compound a: 3000 μM, 1000 μM, 333 μM, 111 μM, 37 μM, 12 μM, 4.1 μM and 1.4 μM. This compound source plate was sealed and kept frozen between uses.
(§3) Cells were grown in RPMI 1640 medium supplemented with 10% Fetal Bovine Serum, 2 mM Glutamine and non-essential amino acids or DMEM/F12 Media containing the same supplements. On day zero, cells were trypsinized, counted and plated into wells of a 96-well Wallac TC Isoplate (Perkin-Elmer Wallac, Gaithersburg, Md.) at a density of 1500-2000 cells per well in 50 μl of complete media. An additional 6-8 replicate well of the cells at the same density were plated on a separate Wallac TC Isoplate. This plate was developed on day 1 to determine the cell-growth baseline.
(§4) On day 1 of treatment, compound was diluted to 2× in media and immediately added to the cells as follows: one ml of media was added to each well of a deep-well 96-well plate and 2 μl of 1000× compound was added with mixing to make 2× compound in media. 50 μl of the media containing 2× compound was added to the cell plates in duplicate points so the final concentrations for each well were as outlined in Table 1. The plates were then returned to a 37° C. incubator and left undisturbed for 4 days. The day 1 (baseline) plates were developed by first adding 50 μl media (without compound) to bring the volume in each well to 100 μl, then adding 100 μl of Cell Titer Glo reagent (as below).
(§5) After four days of treatment, the plates were developed with Cell Titer Glo (CTG) reagent (Promega Corp.; Madison, Wis.). Reagent was reconstituted as described in the product insert. 100 μl of reagent was added to all treatment and control wells and the plates were gently shaken for 5 minutes then incubated an additional 5 minutes before reading in an Analyst AD (Molecular Devices Corporation; Sunnyvale, Calif.) using the Luminescence settings.
(§6) Data was analyzed in Excel using XLfit 4.2, fit model #205 (Dose Response One Site)

H716 = conditions: Homo sapiens, NCI-H716, 96 h, read-out: IC50 cell proliferation
Protocol: as §1, §2, §3, §4, §5, §6

SK-Mel-1 = conditions: Homo sapiens, read-out: IC50 cell proliferation
Protocol: as §1, §2, §3, §4, §5, §6

Hs746T = conditions: Homo sapiens, 96 h, read-out: IC50 cell proliferation
Protocol: as §1, §2, §3, §4, §5, §6

RPMI-7951 = conditions: Homo sapiens, read-out: IC50 cell proliferation
Protocol: as §1, §2, §3, §4, §5, §6

Jurkat = conditions: Homo sapiens, 96 h, read-out: IC50 cell proliferation
Protocol: as §1, §2, §3, §4, §5, §6

SK-Mel-28 = conditions: Homo sapiens, read-out: IC50 cell proliferation
Protocol: as §1, §2, §3, §4, §5, §6

Daudi = conditions: Homo sapiens, 96 h, read-out: IC50 cell proliferation
Protocol: as §1, §2, §3, §4, §5, §6

Hs294T = conditions: Homo sapiens, Hs 294T, 96 h, read-out: IC50 cell proliferation
Protocol: as §1, §2, §3, §4, §5, §6

Caki-1 = conditions: Homo sapiens, read-out: IC50 cell proliferation
Protocol: as §1, §2, §3, §4, §5, §6

M14 = conditions: Homo sapiens, read-out: IC50 cell proliferation
Protocol: as §1, §2, §3, §4, §5, §6

Malme 3M = conditions: Homo sapiens, 96 h, read-out: IC50 cell proliferation
Protocol: as §1, §2, §3, §4, §5, §6

A2058 = conditions: Homo sapiens, read-out: IC50 cell proliferation
Protocol: as §1, §2, §3, §4, §5, §6

A673 = conditions: Homo sapiens, read-out: IC50 cell proliferation
Protocol: as §1, §2, §3, §4, §5, §6

A204 = conditions: Homo sapiens, read-out: IC50 cell proliferation
Protocol: as §1, §2, §3, §4, §5, §6

KG-1 = conditions: Homo sapiens, read-out: IC50 cell proliferation
Protocol: as §1, §2, §3, §4, §5, §6

HT-29 = conditions: Homo sapiens, read-out: IC50 cell proliferation
Protocol: as §1, §2, §3, §4, §5, §6

[1] = Leukemia, BRAF V600V Wild type, 4 days continuous exposure

Compound O=C(Nc1ccc2[nH]nc(-c3ccncc3)c2c1)C1CCN(CC(=O)N2CCN(c3ccc(-c4ncccn4)cc3)CC2)C1 (stereo not shown) [cpd. a] has an IC50 (SK-Mel-31; SK-Mel-31, Melanoma, BRAF V600E Heterozygous, 4 days continuous exposure) of 150 nM, an IC50 (H716; H716, Colon, BRAF V600V Wild type, 4 days continuous exposure) of 334 nM and an IC50 (SK-Mel-1; 96 h, SK-Mel-1, Melanoma, BRAF V600E Heterozygous, 4 days continuous exposure) of 37 nM. For the same compound, the IC50 (Hs746T; Gastric, BRAF V600V Wild type, 4 days continuous exposure) was 125 nM, the IC50 (RPMI-7951; 96 h, RPMI-7951, Melanoma, BRAF V600E Heterozygous, 4 days continuous exposure) was 344 nM and the IC50 (Jurkat; [1]) was greater than 3000 nM. For the same compound, the IC50 (SK-Mel-28; 96 h, SK-Mel-28, Melanoma, BRAF V600E Homozygous, 4 days continuous exposure) was 85 nM, the IC50 (Daudi; [1]) was greater than 3000 nM and the IC50 (Hs294T; Hs294T, Melanoma, BRAF V600E Heterozygous, 4 days continuous exposure) was 1720 nM. It also gave an IC50 (Caki-1; 96 h, Caki-1, Renal, BRAF V600V Wild type, 4 days continuous exposure) of 450 nM, an IC50 (M14; 96 h, M14, Melanoma, BRAF V600E Homozygous, 4 days continuous exposure) of 40 nM and an IC50 (Malme 3M; Malme 3M, Melanoma, BRAF V600E Homozygous, 4 days continuous exposure) of 10 nM. It also gave an IC50 (A2058; 96 h, A2058, Melanoma, BRAF V600E Heterozygous, 4 days continuous exposure) of 120 nM, an IC50 (A673; 96 h, A673, Rhabdomyosarcoma, BRAF V600E Heterozygous, 4 days continuous exposure) greater than 3000 nM and an IC50 (A204; 96 h, A204, Rhabdomyosarcoma, BRAF V600V Wild type, 4 days continuous exposure) greater than 3000 nM. For the same compound, the IC50 (KG-1; 96 h, KG-1, Leukemia, BRAF V600V Wild type, 4 days continuous exposure) was 900 nM and the IC50 (HT-29; 96 h, HT-29, Colon, BRAF V600E Heterozygous, 4 days continuous exposure) was 50 nM.
Work on O=C(NOC[C@H](O)CO)c1ccc(F)c(F)c1Nc1ccc(I)cc1F [cpd. b, PD0325901] yielded an IC50 (SK-Mel-31) of 18 nM, an IC50 (H716) of 164 nM and an IC50 (SK-Mel-1; SK-MEL-1, 96 h) of 3 nM. For the same compound, the IC50 (Hs746T) was 7 nM, the IC50 (RPMI-7951; RPMI-7951, 96 h) was 69 nM and the IC50 (Jurkat) was 1000 nM. For the same compound, the IC50 (SK-Mel-28; SK-MEL-28, 96 h) was 10 nM, the IC50 (Daudi) was 1000 nM and the IC50 (Hs294T) was 71 nM. The IC50 (Caki-1; CAKI-1, 96 h) was 180 nM, the IC50 (M14; M14, 96 h) was 3 nM and the IC50 (Malme 3M; Malme-3M) was 10 nM. For the same compound, the IC50 (A2058; A2058, 96 h) was 10 nM, the IC50 (A673; A673, 96 h) was 1000 nM and the IC50 (A204; A204, 96 h) was 1000 nM. For the same compound, the IC50 (KG-1; KG-1, 96 h) was 40 nM and the IC50 (HT-29; HT-29, 96 h) was 20 nM.
